According to US20050071891A1, “Repressible sterility of animals” (priority 1999, published 2005):

Key:
goosecoid = test: Cotransfection of blocker plasmids with pSFM 6 (goosecoid fused to RFP) in P19-pSFM 7 cells; format: cell-based, mouse; settings: transiently cotransfected with pSFM 6
Experimental: (§1) Fluorescent and transmitted light images were acquired using a CCD camera with a microscope. […] The luminescence assays were conducted by using a dark 96 well plate was done by Victor2 from Wallac or by Topcount NXT from Can berra Packard.
The first stage for testing blocker constructs is to set up an appropriate cell system to detect expression of reporter constructs. Initially, either pdsRED-N1 (CMV promoter RFP), pSFM 6 (CMV promoter goosecoid cDNA fused to RFP) or pSFM 24 (TRE EGFP) were transfected into P19-pSFM 7 cells to test the expression patterns of the EGFP, RFP and goosecoid-fused to RFP proteins (FIG. 37). […] In these cases, RFP expression fused to goosecid in the nucleus is expected to be inhibited in the presence of an appropriate blocker.
In order to assess various antisense and dsRNA blockers, pSFM 6 (CMV promoter goosecoid fused to RFP) was transiently cotransfected into the P19-pSFM 7 (Goosecoid promoter TET/OFF) cells along with either pSFM 5 (TRE promoter dsRNA goosecoid), pSFM 8, (CMV promoter antisense goosecoid), pSFM 9 (TRE promoter antisense goosecoid) or pSFM 24 (TRE promoter EGFP). […] There are several potential reasons for the absence of RNA blocker effects. First, antisense and dsRNA blockers may not be expressed at levels high enough to effectively interfere with the target mRNA molecules. Secondly, there may be cellular mechanisms in mammals that recognize and interfere with such constructs. Thirdly, the RNA inhibitory molecules may not be able to access and block the RNA target.

P19-pSFM 7 cells [1] = test: Luciferase activity of reporter plasmids transiently transfected in P19-pSFM 7 cells; format: cell-based, mouse; settings: for luciferase activity, Fold: relative to pSFM 21; for luciferase activity, Average: transient transfection
Excerpt: Reporter plasmids pSFM 20 (goosecoid promoter luciferase+), pSFM 21 (promoterless luciferase+), pSFM 23 (CMV promoter luciferase+) and pSFM 25 (TRE luciferase+) were transiently transfected into either P19 or P19-pSFM 7 (Goosecoid TET/OFF) cells to test the effectiveness of the TET-OFF genetic switch driven by goosecoid promoter.

P19 cells = test: Luciferase activity of reporter constructs transiently transfected in P19 cells; format: cell-based, mouse; settings: for luciferase activity, Average / luciferase activity, Fold / luciferase activity compared to the promoterless construct (pSFM 21): P19 cells; for luciferase activity, Average: transient transfection; for luciferase activity, Fold: relative to pSFM 21; for luciferase activity compared to the promoterless construct (pSFM 21): transient
Experimental: For transient transfection assays, P19 cells were cultured on gelatinized dishes in DMEM supplemented with 10% fetal bovine serum. Cells (0.3 million per well in 6-well cluster plates) were transfected with 5 μg reporter plasmid using transfection reagent ‘Geneporter’ from Gene Therapy Systems according manufacturer's recommendation.
as §1
P19 cells were transiently transfected in 6 well plates with pSFM 20 (goosecoid promoter-luciferase), pSFM 21 (promoterless luciferase) and pSFM 23 (CMV promoter-luciferase) using Gene Porter. Cells were harvested at various times post-tranfection and assayed for luciferase activity using a Promega kit (Cat. # E1501) in a Top Count NXT luminometer. […]

P19-pSFM 7 cells [2] = test: Luciferase activity of pSFM 25 in P19 clones stably integrated with pSFM 7; format: cell-based, mouse
Experimental: Stably integrated P19 clones were obtained by using BioRad Gene Pulser II electroporation system. 30 μg DNA electroporated into 10 million cells under following conditions 960 μF and 0.16 kV in a 0.4 cm cuvette (0.4 kV/cm). The next day normal media were replaced with appropriate selection media (300 μg/ml G418).
Selection of a P19 cell line stably integrated with a goosecoid-dependent TET-OFF transactivator P19 cells were electroporated with pSFM 7 (Goosecoid promoter-TET/OFF) linearised with ApaLI and selected for stable integration.
Table 20 showes the luciferase activities of pSFM 25 (TRE luciferase+) shown in counts per second (cps) of transiently transfected in P19-pSFM 7 cells.
Addition of doxycycline at 1 μg/ml reduced luciferase activity from pSFM 25 in this clone by 90 fold. This clone, containing stably integrated pSFM 7 was therefore designated P19-pSFM 7 and used for further testing.

Pacific oyster larvae = test: Electroporation of oyster sperm, GUS as reporter gene; format: in vivo, Crassostrea gigas
Experimental: Mature oysters (Crassostrea gigas) were obtained from local hatcheries in Tasmania and New South Wales, and held in artificial seawater at 10° C. until required. Eggs were collected from 2-3 females by stripping the gonads and were pooled, rinsed on a 20 μm mesh, and left to condition in artificial sea water for 2 h. Sperm were stripped from male gonads, diluted to approximately 10,000 gametes/μl, and used immediately for electroporation-mediated nucleic acid delivery. Plasmid DNA (50 μg/ml) or double-stranded RNA (dsRNA; 1 μg/ml) was delivered into 1×10^6 sperm using a BioRad Gene Pulser II electroporator in 0.2 cm gap electroporation cuvettes. Sperm were subjected to a single electroporation pulse (50 V, 100% modulation, 10 kHz, 12.5 msec) and immediately mixed with 5000 oocytes. Fertilized embryos and developing larvae were reared at 20° C. in artificial seawater containing 0.1 μg/ml chloramphenicol. Surviving larvae were counted after 24 h development. For experiments in which the Drosophila melanogaster heat shock promoter was used to drive expression of the delivered genes, a 1 h heat shock at 37° C. was provided either at 2 h or 18 h post fertilization, and development was then permitted to proceed at 20° C.
Transfection efficiencies were also assessed in a second set of experiments that examined delivery of pHSP-GUS construct (SEQ ID NO:21). The pHSP-GUS construct was made in a two step fashion. First, the D. melanogaster heat shock promoter and terminator were isolated from the pCaSpeR-hs plasmid (Thummel and Pirrotta, 1992, Drosophila Information Service 71: 150) by PCR using the two primers: […]
GUS activity in these experiments was measured using a fluorometric assay as previously described (Jefferson, R A 1987).

HoxCG1 = test: Reversible arrested oyster larval development with tetracycline-responsive plasmid; format: in vivo; settings: 72 hours
Excerpt: The second Sterile Feral Construct tested for oysters, expresses the tTA under the Drosophila HSP. The tTA then drives expression of red fluorescent protein and double stranded oyster Hox via the TRE. Three separate fragments were ligated together to form this construct. The first fragment was obtained by digestion of pBiT(dHSP)-EGFP, (Seq ID NO:19), with HindIII and NheI followed by gel purification of the appropriate fragment containing the Drosophila HSP promoter. The second fragment was obtained by digesting pBiT(dHSP)-EGFP with NotI and MluI followed by gel purification of the appropriate fragment containing the TRE. The third fragment was obtained by digesting pHSP-oHoxDS/BH with MluI and. SpeI and gel purifying the appropriate fragment containing the 510 bp fragment of the zBMP2 cDNA from sequence 301-810 in the published cDNA sequence (Lee et al., 1998). The fourth fragment was obtained by firstly subcloning into pGEM3zf a KpnI/XbaI fragment containing the coding region of red fluorescent protein (RFP) that was excised from pDsRed1-N1 (Clontech, PT3405-5) vector. The resulting plasmid was then subjected to digestion with HindIII and PspOMI and the appropriate fragment containing the coding region of RFP was then gel purified from this reaction. […]

HoxCG1 gene = test: Arrested development of oyster embryos transfected with hairpin dsRNA plasmid; format: in vivo
Experimental: In vivo expression of dsRNA was achieved by transfecting oyster larvae with the pBiT(dHSP)-RFP-oHoxDS/BH plasmid (FIG. 21; SEQ ID NO:20), which contains the heat inducible promoter (PHSP70) from D. melanogaster driving the expression of a hairpin RNA molecule specific to the HoxCG1 gene. The construct was prepared as follows. SEQ ID NO:23 (AGAL ref #: NM99/09101) was used as a template to generate a PCR fragment using the following primers: […]
Oyster sperm were transfected with the DNA using electroporation, and oocytes were fertilized and larvae allowed to develop for 96 hours. Embryos were heat shocked for one hour at 3 hours post fertilization to induce transcription of the dsRNAs.

| Substance | intensity or number of cells expressing RFP in the nucleus (goosecoid) | luciferase activity, Fold (P19-pSFM 7 cells [1]) | luciferase activity, Average (P19-pSFM 7 cells [1]) | luciferase activity, Average (P19 cells) | luciferase activity, Fold (P19 cells) | luciferase activity (P19 cells; 24 hours post-transfection) | luciferase activity (P19 cells; 48 hours post-transfection) | luciferase activity (P19 cells; 72 hours post-transfection) | further results |
| --- | --- | --- | --- | --- | --- | --- | --- | --- | --- |
| pSFM 9: Tet-responsive expression vector pTRE-goosecoid antisense RNA | significant difference could not be detected | – | – | – | – | – | – | – | – |
| pSFM 25: Tet-responsive expression vector pTRE-luciferase+ | – | 6 | 368 | 183 | 1.5 | – | – | – | luciferase activity (P19-pSFM 7 cells [2]; clone 9, with doxycycline): 54858 cps; luciferase activity (P19-pSFM 7 cells [2]; clone 9, without doxycycline): 582529 cps; luciferase activity (P19-pSFM 7 cells [2]; clone 12, with doxycycline): 4396 cps; luciferase activity (P19-pSFM 7 cells [2]; clone 12, without doxycycline): 417268 cps; luciferase activity (P19-pSFM 7 cells [2]; clone 29, with doxycycline): 48260 cps; luciferase activity (P19-pSFM 7 cells [2]; clone 29, without doxycycline): 616604 cps; luciferase activity (P19-pSFM 7 cells [2]; clone 32, with doxycycline): 19548 cps; luciferase activity (P19-pSFM 7 cells [2]; clone 32, without doxycycline): 272888 cps; luciferase activity (P19-pSFM 7 cells [2]; clone 46, with doxycycline): 8013 cps; luciferase activity (P19-pSFM 7 cells [2]; clone 46, without doxycycline): 703470 cps |
| pSFM 8: pCMV promoter expressing goosecoid antisense RNA | significant difference could not be detected | – | – | – | – | – | – | – | – |
| pSFM 5: Tet-responsive expression vector pTRE-goosecoid double strand RNA | significant difference could not be detected | – | – | – | – | – | – | – | – |
| pHSP-GUS: expresses GUS under the control of the D. melanogaster heat shock promoter (SEQ ID NO:21) | – | – | – | – | – | – | – | – | GUS activity (Pacific oyster larvae; electroporation, heat shock): 83.2 ± 5.4 fluorescence units/μg protein; GUS activity relative to controls (Pacific oyster larvae; electroporation, heat shock): 19.8; GUS activity (Pacific oyster larvae; electroporation, no heat shock): 10.5 ± 0.5 fluorescence units/μg protein; GUS activity relative to controls (Pacific oyster larvae; electroporation, no heat shock): 2.5; GUS activity (Pacific oyster larvae; no electroporation, heat shock): 4.5 ± 0.5 fluorescence units/μg protein; GUS activity relative to controls (Pacific oyster larvae; no electroporation, heat shock): 1.1; % arrested development (HoxCG1; No doxycycline): 5 ± 3%; % arrested development (HoxCG1; With doxycycline (5 μg/μl)): 4 ± 3%; % arrested development (HoxCG1 gene; no heat shock): 6 ± 2%; % arrested development (HoxCG1 gene; with heat shock (one hour at 3 hours post fertilization)): 8 ± 3% |
| pSFM 20: goosecoid promoter expressing luciferase+ protein | – | 6 | 365 | 610 | 5 | 1263 cps | 3707 cps | 1692 cps | luciferase activity compared to the promoterless construct (pSFM 21) (P19 cells): 6 fold |
| pSFM 23: pCMV promoter expressing luciferase+ | – | 267 | 16031 | 44491 | 367 | 78778 cps | 145403 cps | 49936 cps | luciferase activity compared to the promoterless construct (pSFM 21) (P19 cells): 200-300 fold |
| pSFM 21: promoterless luciferase+ | – | 1 | 60 | 121 | 1 | 254 cps | 604 cps | 252 cps | – |
